The nature of data set [1]: Aqueous stability over time by NMR. The conditions noted are these: aqueous medium, 2 day old equilibrated sample, KCl added. Type of data set: physicochemical. From the text:
The aqueous stability of the complexes was also studied over time. The small shifts of signals attributable to the structural change of the complex can be observed; however, by adding KCl to the 2 day old equilibrated sample, the original signals could be recovered.

Data set [2] deals with ID8 cells. As to the kind of experiment: SRB proliferation assay (48 h) on ID8 cells. As to conditions: for cytostatic activity in long-term SRB assay (in words): ID8 cells; for pIC50 / ID8 Hill Slope: SRB, nonlinear regression, N/A = could not be calculated/had no effect. The data set is classed as cell-based. The protocol: (§1) Cells were cultured under standard cell culture conditions, 37 °C, 5% CO2, humidified atmosphere. A2780 cells were cultured in RMPI 1640 medium supplemented with 10% fetal calf serum, 2 mM glutamine, and 1% penicillin–streptomycin (Sigma-Aldrich). ID8 cells were cultured in high-glucose DMEM (4.5 g/L glucose) supplemented with 4% fetal calf serum, 2 mM glutamine, 1% penicillin–streptomycin (Sigma-Aldrich), and 1% ITS supplement (Sigma-Aldrich I3146). U251 cells were maintained in MEM (Sigma-Aldrich), 10% fetal bovine serum (Sigma-Aldrich), 1% penicillin/streptomycin (Invitrogene), and 2 mM glutamine. MCF7 cells were maintained in MEM (Sigma-Aldrich), 10% fetal bovine serum (Sigma-Aldrich), 1% penicillin/streptomycin (Invitrogen, Waltham, MA, USA), and 2 mM glutamine. Capan2 cells were maintained in MEM (Sigma-Aldrich), 10% fetal bovine serum (Sigma-Aldrich), 1% penicillin/streptomycin (Invitrogen), and 2 mM glutamine. Human primary dermal fibroblasts were cultured in low-glucose DMEM (1 g/L glucose) supplemented with 20% fetal calf serum, 2 mM glutamine, and 1% penicillin–streptomycin (Sigma-Aldrich).
(§2) The SRB accumulation assay assesses protein content in a sample, and it was used to assess cell proliferation. The SRB accumulation assay was performed similarly to [68]. Cells were seeded in 96-well plates. The next day, cells were treated with the compounds for 48 h in the concentrations indicated in a cell incubator. At the end of treatment, cells were fixed with 10% trichloroacetic acid (TCA). Fixed cells were stained with SRB (0.4% m/v dissolved in 1% acetic acid) for 60 min. Fixed cells were washed in 1% acetic acid three times; acetic acid was removed, and cells were left to dry. Protein-bound SRB was released by adding 100 µL of 10 mM Tris base. Plates were measured in a plate photometer (Thermo Scientific Multiscan GO spectrophotometer, Waltham, MA, USA) at 540 nm. On each plate, wells were designed to contain untreated cells. In calculations, the readings for these wells were considered as 1, and all readings were expressed relative to these values.
(§3) Statistical analysis was performed using Graphpad Prism version 8.0.1. Values were tested for normal distribution using the D’Agostino and Pearson normality test. When necessary, values were log-normalized or were normalized using the Box–Cox normalization method, as indicated in the figure captions. Nonlinear regression was performed using the built-in “[Inhibitor] vs. response—variable slope (four parameters), least square fit” utility of Graphpad that yielded IC50 and Hill slope values.

The nature of data set [3]: Determination of the distribution coefficients (logD), n-octanol/PBS. The data set is classed as physicochemical. The conditions noted are these: n-octanol / PBS pH = 7.40. The protocol: Prior to the experiments, n-octanol was saturated with aqueous PBS solution (pH = 7.40) and vice versa. The corresponding complex (approximately 0.2–0.3 mg) was dissolved in a mixture of 2.50 mL of pre-saturated n-octanol and 2.50 mL of pre-saturated PBS buffer, and the mixture was vigorously stirred for 3 days. According to the NMR stability measurements, this time was necessary to reach equilibrium between the various ionic complex species. Due to the lipophilic/hydrophilic character of the complexes, those with benzoyl protection or the non-sugar derivative could mostly be found in the n-octanol, while the acetyl and non-protected complexes could be found in the aqueous PBS phase. The appropriate separated solution was centrifuged (ScanSpeed 406G instrument, 4000 RPM for 5 min), and the absorption of the “stock solution” was measured (VWR UV-1600PC Spectrophotometer, 270–420 nm). Then 2.00 mL of stock solution was stirred vigorously with 16.00 mL of pre-saturated, clean n-octanol or PBS solution. After 1 day, the phases were separated and centrifuged, and the absorption of the solution was measured again. From the absorption difference of the stock solutions, the distribution coefficient (D) was calculated according to the previously described formulae [66].

Data set [4] concerns A2780 cells. The data set is described as follows: Annexin V-FITC, PI double staining (flow cytometry). The data set is classed as cell-based, human. As to conditions: concentration corresponding to IC50, 2 h, 4 h or 48 h. The protocol:
Annexin V–PI double staining was applied to assess apoptotic and necrotic cell death similar to [37, 38, 69]. A2780 cells were treated with the indicated compounds at the concentration corresponding to their IC50 value for 2, 4, and 48 h. The 4 and 48 h time points correspond to the time points for the MTT and SRB assays, while the 2 h time point reflects the optimum time point for the detection of apoptotic or necrotic cell death. Quadrants were set on the basis of the FITC and PI values observed for the vehicle-treated cells.
In general terms: In flow cytometry, cells or beads pass a laser one at a time.

Data set [5] has as its system A2780 human ovarian carcinoma cells. As to the kind of experiment: MTT reduction assay (4 h, rapid toxicity) on A2780 cells. Type of data set: cell-based. Here is the method: as §1
(§4) The MTT reduction assay assesses the activity of mitochondrial complex I, and it was used to assess rapid toxicity. The MTT reduction assay was performed similarly to [67]. Cells were seeded in 96-well plates. The next day, cells were treated with the compounds for 4 h in the concentrations indicated in a cell incubator. At the end of treatment, MTT was added in 0.5 mg/mL final concentration, and cells were incubated at 37 °C in a cell incubator. Then, culture media was removed, the reduced MTT dye was resolved in dimethyl sulfoxide (DMSO), and plates were measured in a plate photometer (Thermo Scientific Multiscan GO spectrophotometer, Waltham, MA, USA) at 540 nm. On each plate, wells were designed to contain untreated/vehicle-treated cells. In calculations, the readings for these wells were considered as 1, and all readings were expressed relative to these values.
A general note: Tetrazolium dyes change colour on reduction, which living cells bring about.

The subject of data set [6] is ID8 cells. As to the kind of experiment: MTT reduction assay (4 h, rapid toxicity) on ID8 cells. The data set is classed as cell-based. Here is the method: as §1, §4
The subject of data set [7] is A2780 human ovarian carcinoma cells. The data set is described as follows: SRB proliferation assay (48 h) on A2780 cells. Type of data set: cell-based. As to conditions: for cytostatic activity in long-term SRB assay (in words): A2780 cells, 100–0.0017 µM; for Hill slope (span over cell lines): SRB curves, A2780 and ID8 cells; for A2780 Hill Slope / pIC50: SRB, nonlinear regression, N/A = could not be calculated/had no effect. Here is the method:
as §1, §2, §3

Data set [8] concerns A2780 cells. As to the kind of experiment: SRB assay on A2780 cells with antioxidant cotreatment (GSH, NAC, MitoTEMPO, vitamin E, Trolox). The data set is classed as cell-based, human. The conditions noted are these: 48 h. The protocol: as §2
In general terms: In SRB staining, fixed cells bind dye roughly in proportion to their protein.

Data set [9] has as its system human primary skin fibroblasts. The data set is described as follows: MTT reduction assay (4 h, rapid toxicity) on primary fibroblasts. Type of data set: cell-based. Here is the method: as §1, §4
Data set [10] relates to MCF7 cells (breast cancer). As to the kind of experiment: SRB proliferation assay (48 h) on MCF7 cells. Type of data set: cell-based. The conditions noted are these: nonlinear regression. The protocol: as §1, §2, §3
Data set [11] concerns Capan2 (pancreatic adenocarcinoma). The data set is described as follows: SRB proliferation assay (48 h) on Capan2 cells. Type of data set: cell-based. The conditions noted are these: nonlinear regression. The protocol:
as §1, §2, §3

Data set [12] relates to human primary skin fibroblasts. As to the kind of experiment: SRB proliferation assay (48 h) on primary fibroblasts. Type of data set: cell-based. The protocol:
as §1, §2, §3

In data set [13] the test system is A2780 cells. As to the kind of experiment: SRB assay on A2780 cells with or without 3 µM rucaparib. The data set is classed as cell-based, human. As to conditions: 48 h, vehicle (no rucaparib). The protocol:
as §2, §3

In data set [14] the test system is A2780 cells. The data set is described as follows: Western blotting of 4-hydroxy-nonenal (4HNE), oxidative stress marker. As to conditions: concentration corresponding to IC50, 48 h. Type of data set: cell-based, human. The protocol: The preparation of protein extracts, the separation of protein extracts in SDS-polyacrylamide gel electrophoresis, and the subsequent Western blotting were performed as described in [70] using the antibodies in Table 4. Enhanced chemiluminescence was developed using ChemiDoc Imager, (Bio-Rad, Hercules, CA, USA). Densitometry was performed using Image Lab Touch Software, Bio-Rad, Hercules, CA, USA).

Data set [15] relates to U251 cells (glioblastoma model). The data set is described as follows: SRB proliferation assay (48 h) on U251 cells. Type of data set: cell-based. The conditions noted are these: nonlinear regression. Here is the method:
as §1, §2, §3

pIC50: −log10 of the molar value.

As to `Cc1ccc(C(C)C)cc1.F[P-](F)(F)(F)(F)F.OCC1OC(n2cc(-c3ccccn3)nn2)C(O)C(O)C1O.[Cl][Ru+]` (mixture of isomers) [Ru-3a], in data set [1], the “aqueous stability over time (NMR)” value is “only the exchange of the coordinating chloride ion by a water molecule occurred in a reversible manner”.

A word on the pIC50: it is the negative decadic logarithm of the IC50, by convention in mol/L. What is called logD is the decadic logarithm of the distribution of all forms, ionised or not, between an organic phase and buffer at a given pH. A low value points to lower lipophilicity. For the compound `Cc1ccc(C(C)C)cc1.F[P-](F)(F)(F)(F)F.O=C(OC1COC(c2n[n+]3c(o2)-c2cccc[n+]2[Ru-]3[Cl])C(OC(=O)c2ccccc2)C1OC(=O)c1ccccc1)c1ccccc1` (mixture of isomers) [Ru-6], in data set [2], the “cytostatic activity in long-term SRB assay (in words)” value (“cytostatic activity” below) is given as “cytostatic”, the pIC50 was 5.17 and the “ID8 Hill Slope” value was 3.59. In data set [3], this compound showed a logD of 2.04. The “proportions of PI-positive, annexin V-positive and double-positive cells” value in data set [4] is “did not largely increase”. In data set [5], the “effect in short-term MTT assay, rapid toxicity (in words)” value (“effect in short-term MTT assay” below) is recorded as “cytostatic properties”. Further, the “effect on MTT signal at 100 µM” value in data set [6] (100 µM, Ru-4: not statistically significant) is reported as “reduced the MTT signal”. In [7], the “cytostatic activity” value is “cytostatic properties”, the “Hill slope (span over cell lines)” value is given as 2–3, the “A2780 Hill Slope” value is recorded as 3.74 and the pIC50 was 5.07. In data set [8], the “effect of GSH and NAC cotreatment on the cytostatic effects of the complex” value is given as “attenuated the cytostatic effects”; the “effect of MitoTEMPO on the cytostatic effects of the complex” value is listed as “did not modulate the effects”. Moreover, the “effect in short-term MTT assay” value in [9] is given as “no effect”. Moreover, in data set [10], the pIC50 is 5.17 and the “MCF7 Hill Slope” value was 2.13. Besides, in [11], the “Capan2 Hill Slope” value amounted to 1.66 and the pIC50 is 5.30. Also, the “Fibroblast Hill Slope” value in data set [12] (SRB, nonlinear regression, N/A = could not be calculated/had no effect) was 3.52. In [12] (SRB, nonlinear regression, N/A = could not be calculated/had no effect, read-out: Fibroblast IC50), the pIC50 was 4.61. The “effect on SRB signal at 100 µM” value in data set [12] (primary human fibroblasts, 100 µM) is “reduced the SRB signal”. This compound gave a pIC50 in [13] of 5.17. Moreover, in [14], the “expression of oxidative stress marker 4-hydroxy-nonenal (4HNE)” value is listed as “increase in the expression”. Also, in data set [15], the pIC50 is 5.18 and the “U251 Hill Slope” value is on record as 2.13.

With `Cc1ccc(C(C)C)cc1.F[P-](F)(F)(F)(F)F.O=C(OCC1OC(c2nnc(-c3ccccn3)o2)C(OC(=O)c2ccccc2)C(OC(=O)c2ccccc2)C1OC(=O)c1ccccc1)c1ccccc1.[Cl][Ru+]` (mixture of isomers) [Ru-8], in [2], the “cytostatic activity” value is listed as “cytostatic”, the pIC50 was 5.10 and the “ID8 Hill Slope” value is on record as 3.31. For the same compound, in data set [3], the logD came to 2.44. In data set [4], the “proportions of PI-positive, annexin V-positive and double-positive cells” value is listed as “did not largely increase”. Moreover, the “effect in short-term MTT assay” value in [5] is listed as “cytostatic properties”. Moreover, the “effect on MTT signal above 10 µM” value in data set [5] (above 10 µM concentration) was “reduced the MTT signal”. Further, the “effect on MTT signal above 10 µM” value in data set [6] (above 10 µM concentration) was “reduced the MTT signal”. Besides, in data set [7], the “cytostatic activity” value is recorded as “cytostatic properties”, the “Hill slope (span over cell lines)” value is listed as 2–3, the “A2780 Hill Slope” value is 3.50 and the pIC50 was 5.37. In data set [8], the “effect of GSH and NAC cotreatment on the cytostatic effects of the complex” value is on record as “attenuated the cytostatic effects”; the “effect of MitoTEMPO on the cytostatic effects of the complex” value is “did not modulate the effects”. Further, in data set [9], the “effect in short-term MTT assay” value is recorded as “no effect”. Moreover, in data set [10], the pIC50 is 5.43 and the “MCF7 Hill Slope” value worked out at 2.06. In data set [11], the “Capan2 Hill Slope” value was 1.66 and the pIC50 was 5.42. The “effect in long-term SRB assay (in words)” value in data set [12] (primary human fibroblasts) is reported as “no effect”. In data set [13], this compound had a pIC50 of 5.38. The “expression of oxidative stress marker 4-hydroxy-nonenal (4HNE)” value in [14] is “increase in the expression”. In addition, in data set [15], the pIC50 is 5.35 and the “U251 Hill Slope” value is 2.50.

Source of the values: paper PMC8508960, “Ruthenium Half-Sandwich Type Complexes with Bidentate Monosaccharide Ligands Show Antineoplastic Activity in Ovarian Cancer Cell Models through Reactive Oxygen Species Production” (International Journal of Molecular Sciences, 2021).
